According to patent US20260027116A1, “Methods of Treating Chronic Graft-Versus-Host Disease Following Allogeneic Hematopoietic Stem Cell Transplantation” (Kadmon Corporation, LLC, priority 2022, published 2026):

Tested on: lung function
Assay: Example 1: percent predicted FEV1 change from baseline
Format: in vivo, human
Procedure: Change From Baseline in Percent Predicted Forced Expiratory Volume in 1 Second (FEV1) at Each Specified Time Points. FEV1 was the volume of air exhaled from the lungs in the first second of a forced expiration as measured by spirometer. Baseline value was defined as valid and last non-missing value obtained within 28 days prior to participant receiving first study medication. EOT visit was performed within 3 days after the participant's last dose of study drug. […] Analysis was performed on mITT population. Here, ‘number analyzed’=participants with available data for each specified category. Here, ‘O’ in the number analyzed field signifies that none of the participants were available for the analysis at the specified time points.

CC(C)NC(=O)COc1cccc(-c2nc(Nc3ccc4[nH]ncc4c3)c3ccccc3n2)c1 [Belumosudil, 2-{3-[4-(1H-indazol-5-ylamino)-2-quinazolinyl]phenoxy}-N-(propan-2-yl) acetamide]
Change From Baseline in Percent Predicted Forced Expiratory Volume in 1 Second (FEV1), Mean (Standard Deviation) (Cohort 1: 200 mg QD, Cycle 63, Day 1): 13.0 (—) percent predicted FEV1 | Change From Baseline in Percent Predicted Forced Expiratory Volume in 1 Second (FEV1), Mean (Standard Deviation) (Cohort 1: 200 mg QD, Cycle 67, Day 1): 14.0 (—) percent predicted FEV1 | Change From Baseline in Percent Predicted Forced Expiratory Volume in 1 Second (FEV1), Mean (Standard Deviation) (Cohort 1: 200 mg QD, EOT): −1.4 (9.0) percent predicted FEV1 | Change From Baseline in Percent Predicted Forced Expiratory Volume in 1 Second (FEV1), Mean (Standard Deviation) (Cohort 2: 200 mg BID, Cycle 3, Day 1): −1.8 (7.1) percent predicted FEV1 | Change From Baseline in Percent Predicted Forced Expiratory Volume in 1 Second (FEV1), Mean (Standard Deviation) (Cohort 2: 200 mg BID, Cycle 5, Day 1): −5.0 (6.5) percent predicted FEV1 | Change From Baseline in Percent Predicted Forced Expiratory Volume in 1 Second (FEV1), Mean (Standard Deviation) (Cohort 2: 200 mg BID, Cycle 7, Day 1): −2.6 (9.4) percent predicted FEV1 | Change From Baseline in Percent Predicted Forced Expiratory Volume in 1 Second (FEV1), Mean (Standard Deviation) (Cohort 2: 200 mg BID, Cycle 8, Day 1): 1.0 (—) percent predicted FEV1 | Change From Baseline in Percent Predicted Forced Expiratory Volume in 1 Second (FEV1), Mean (Standard Deviation) (Cohort 2: 200 mg BID, Cycle 9, Day 1): −5.9 (11.7) percent predicted FEV1 | Change From Baseline in Percent Predicted Forced Expiratory Volume in 1 Second (FEV1), Mean (Standard Deviation) (Cohort 2: 200 mg BID, Cycle 10, Day 1): −6.0 (8.5) percent predicted FEV1 | Change From Baseline in Percent Predicted Forced Expiratory Volume in 1 Second (FEV1), Mean (Standard Deviation) (Cohort 2: 200 mg BID, Cycle 11, Day 1): −4.0 (8.5) percent predicted FEV1 | Change From Baseline in Percent Predicted Forced Expiratory Volume in 1 Second (FEV1), Mean (Standard Deviation) (Cohort 2: 200 mg BID, Cycle 12, Day 1): −1.0 (—) percent predicted FEV1 | Change From Baseline in Percent Predicted Forced Expiratory Volume in 1 Second (FEV1), Mean (Standard Deviation) (Cohort 2: 200 mg BID, Cycle 13, Day 1): −2.5 (14.7) percent predicted FEV1 | Change From Baseline in Percent Predicted Forced Expiratory Volume in 1 Second (FEV1), Mean (Standard Deviation) (Cohort 2: 200 mg BID, Cycle 14, Day 1): 0.0 (—) percent predicted FEV1 | Change From Baseline in Percent Predicted Forced Expiratory Volume in 1 Second (FEV1), Mean (Standard Deviation) (Cohort 2: 200 mg BID, Cycle 15, Day 1): −2.3 (5.1) percent predicted FEV1 | Change From Baseline in Percent Predicted Forced Expiratory Volume in 1 Second (FEV1), Mean (Standard Deviation) (Cohort 2: 200 mg BID, Cycle 16, Day 1): −8.0 (15.6) percent predicted FEV1 | Change From Baseline in Percent Predicted Forced Expiratory Volume in 1 Second (FEV1), Mean (Standard Deviation) (Cohort 2: 200 mg BID, Cycle 17, Day 1): −6.0 (7.2) percent predicted FEV1 | Change From Baseline in Percent Predicted Forced Expiratory Volume in 1 Second (FEV1), Mean (Standard Deviation) (Cohort 2: 200 mg BID, Cycle 18, Day 1): −7.5 (10.6) percent predicted FEV1 | Change From Baseline in Percent Predicted Forced Expiratory Volume in 1 Second (FEV1), Mean (Standard Deviation) (Cohort 2: 200 mg BID, Cycle 19, Day 1): −6.3 (5.5) percent predicted FEV1 | Change From Baseline in Percent Predicted Forced Expiratory Volume in 1 Second (FEV1), Mean (Standard Deviation) (Cohort 2: 200 mg BID, Cycle 25, Day 1): −12.5 (3.5) percent predicted FEV1 | Change From Baseline in Percent Predicted Forced Expiratory Volume in 1 Second (FEV1), Mean (Standard Deviation) (Cohort 2: 200 mg BID, Cycle 27, Day 1): −17.0 (9.9) percent predicted FEV1 | Change From Baseline in Percent Predicted Forced Expiratory Volume in 1 Second (FEV1), Mean (Standard Deviation) (Cohort 2: 200 mg BID, Cycle 29, Day 1): 17.0 (11.3) percent predicted FEV1 | Change From Baseline in Percent Predicted Forced Expiratory Volume in 1 Second (FEV1), Mean (Standard Deviation) (Cohort 2: 200 mg BID, Cycle 31, Day 1): −19.5 (10.6) percent predicted FEV1 | Change From Baseline in Percent Predicted Forced Expiratory Volume in 1 Second (FEV1), Mean (Standard Deviation) (Cohort 2: 200 mg BID, Cycle 33, Day 1): −1.0 (33.9) percent predicted FEV1 | Change From Baseline in Percent Predicted Forced Expiratory Volume in 1 Second (FEV1), Mean (Standard Deviation) (Cohort 2: 200 mg BID, Cycle 35, Day 1): −2.5 (30.4) percent predicted FEV1 | Change From Baseline in Percent Predicted Forced Expiratory Volume in 1 Second (FEV1), Mean (Standard Deviation) (Cohort 2: 200 mg BID, Cycle 37, Day 1): −22.0 (—) percent predicted FEV1 | Change From Baseline in Percent Predicted Forced Expiratory Volume in 1 Second (FEV1), Mean (Standard Deviation) (Cohort 2: 200 mg BID, Cycle 39, Day 1): −23.0 (11.3) percent predicted FEV1 | Change From Baseline in Percent Predicted Forced Expiratory Volume in 1 Second (FEV1), Mean (Standard Deviation) (Cohort 2: 200 mg BID, Cycle 43, Day 1): −21.0 (—) percent predicted FEV1 | Change From Baseline in Percent Predicted Forced Expiratory Volume in 1 Second (FEV1), Mean (Standard Deviation) (Cohort 2: 200 mg BID, EOT): −10.1 (15.7) percent predicted FEV1 | Change From Baseline in Percent Predicted Forced Expiratory Volume in 1 Second (FEV1), Mean (Standard Deviation) (Cohort 3: 400 mg QD, Cycle 2, Day 1): −4.8 (6.7) percent predicted FEV1 | Change From Baseline in Percent Predicted Forced Expiratory Volume in 1 Second (FEV1), Mean (Standard Deviation) (Cohort 3: 400 mg QD, Cycle 3, Day 1): −1.5 (6.2) percent predicted FEV1 | Change From Baseline in Percent Predicted Forced Expiratory Volume in 1 Second (FEV1), Mean (Standard Deviation) (Cohort 3: 400 mg QD, Cycle 4, Day 1): −0.2 (8.4) percent predicted FEV1 | Change From Baseline in Percent Predicted Forced Expiratory Volume in 1 Second (FEV1), Mean (Standard Deviation) (Cohort 3: 400 mg QD, Cycle 5, Day 1): 0.5 (5.9) percent predicted FEV1 | Change From Baseline in Percent Predicted Forced Expiratory Volume in 1 Second (FEV1), Mean (Standard Deviation) (Cohort 3: 400 mg QD, Cycle 6, Day 1): −0.9 (6.4) percent predicted FEV1 | Change From Baseline in Percent Predicted Forced Expiratory Volume in 1 Second (FEV1), Mean (Standard Deviation) (Cohort 3: 400 mg QD, Cycle 7, Day 1): −0.9 (11.8) percent predicted FEV1 | Change From Baseline in Percent Predicted Forced Expiratory Volume in 1 Second (FEV1), Mean (Standard Deviation) (Cohort 3: 400 mg QD, Cycle 8, Day 1): −1.1 (8.0) percent predicted FEV1 | Change From Baseline in Percent Predicted Forced Expiratory Volume in 1 Second (FEV1), Mean (Standard Deviation) (Cohort 3: 400 mg QD, Cycle 9, Day 1): −3.0 (11.8) percent predicted FEV1 | Change From Baseline in Percent Predicted Forced Expiratory Volume in 1 Second (FEV1), Mean (Standard Deviation) (Cohort 3: 400 mg QD, Cycle 10, Day 1): 2.7 (3.9) percent predicted FEV1 | Change From Baseline in Percent Predicted Forced Expiratory Volume in 1 Second (FEV1), Mean (Standard Deviation) (Cohort 3: 400 mg QD, Cycle 11, Day 1): −4.4 (15.8) percent predicted FEV1 | Change From Baseline in Percent Predicted Forced Expiratory Volume in 1 Second (FEV1), Mean (Standard Deviation) (Cohort 3: 400 mg QD, Cycle 12, Day 1): 0.3 (3.6) percent predicted FEV1 | Change From Baseline in Percent Predicted Forced Expiratory Volume in 1 Second (FEV1), Mean (Standard Deviation) (Cohort 3: 400 mg QD, Cycle 13, Day 1): −3.5 (13.2) percent predicted FEV1 | Change From Baseline in Percent Predicted Forced Expiratory Volume in 1 Second (FEV1), Mean (Standard Deviation) (Cohort 3: 400 mg QD, Cycle 14, Day 1): −5.1 (9.1) percent predicted FEV1 | Change From Baseline in Percent Predicted Forced Expiratory Volume in 1 Second (FEV1), Mean (Standard Deviation) (Cohort 3: 400 mg QD, Cycle 15, Day 1): −6.1 (12.6) percent predicted FEV1 | Change From Baseline in Percent Predicted Forced Expiratory Volume in 1 Second (FEV1), Mean (Standard Deviation) (Cohort 3: 400 mg QD, Cycle 16, Day 1): −4.5 (7.3) percent predicted FEV1 | Change From Baseline in Percent Predicted Forced Expiratory Volume in 1 Second (FEV1), Mean (Standard Deviation) (Cohort 3: 400 mg QD, Cycle 17, Day 1): −7.9 (15.5) percent predicted FEV1 | Change From Baseline in Percent Predicted Forced Expiratory Volume in 1 Second (FEV1), Mean (Standard Deviation) (Cohort 3: 400 mg QD, Cycle 18, Day 1): 4.0 (6.0) percent predicted FEV1 | Change From Baseline in Percent Predicted Forced Expiratory Volume in 1 Second (FEV1), Mean (Standard Deviation) (Cohort 3: 400 mg QD, Cycle 19, Day 1): 0.5 (8.5) percent predicted FEV1 | Change From Baseline in Percent Predicted Forced Expiratory Volume in 1 Second (FEV1), Mean (Standard Deviation) (Cohort 3: 400 mg QD, Cycle 25, Day 1): −5.0 (11.4) percent predicted FEV1 | Change From Baseline in Percent Predicted Forced Expiratory Volume in 1 Second (FEV1), Mean (Standard Deviation) (Cohort 3: 400 mg QD, Cycle 27, Day 1): −10.0 (17.0) percent predicted FEV1 | Change From Baseline in Percent Predicted Forced Expiratory Volume in 1 Second (FEV1), Mean (Standard Deviation) (Cohort 3: 400 mg QD, Cycle 29, Day 1): 0.0 (1.4) percent predicted FEV1 | Change From Baseline in Percent Predicted Forced Expiratory Volume in 1 Second (FEV1), Mean (Standard Deviation) (Cohort 3: 400 mg QD, Cycle 31, Day 1): −4.0 (—) percent predicted FEV1 | Change From Baseline in Percent Predicted Forced Expiratory Volume in 1 Second (FEV1), Mean (Standard Deviation) (Cohort 3: 400 mg QD, Cycle 35, Day 1): −4.0 (—) percent predicted FEV1 | Change From Baseline in Percent Predicted Forced Expiratory Volume in 1 Second (FEV1), Mean (Standard Deviation) (Cohort 3: 400 mg QD, Cycle 36, Day 1): 5.0 (—) percent predicted FEV1 | Change From Baseline in Percent Predicted Forced Expiratory Volume in 1 Second (FEV1), Mean (Standard Deviation) (Cohort 3: 400 mg QD, Cycle 39, Day 1): −5.0 (—) percent predicted FEV1 | Change From Baseline in Percent Predicted Forced Expiratory Volume in 1 Second (FEV1), Mean (Standard Deviation) (Cohort 3: 400 mg QD, Cycle 43, Day 1): −7.0 (—) percent predicted FEV1 | Change From Baseline in Percent Predicted Forced Expiratory Volume in 1 Second (FEV1), Mean (Standard Deviation) (Cohort 3: 400 mg QD, Cycle 47, Day 1): −5.0 (—) percent predicted FEV1 | Change From Baseline in Percent Predicted Forced Expiratory Volume in 1 Second (FEV1), Mean (Standard Deviation) (Cohort 3: 400 mg QD, Cycle 49, Day 1): −2.0 (—) percent predicted FEV1 | Change From Baseline in Percent Predicted Forced Expiratory Volume in 1 Second (FEV1), Mean (Standard Deviation) (Cohort 3: 400 mg QD, EOT): −7.4 (14.9) percent predicted FEV1
